Test results published in patent US11590091B2, “Fixed dose composition of paracetamol: amitriptyline and method for the treatment of mixed cancer pain” (CENTRO DE INVESTIGACIÓN Y DESARROLLO DE MEDICAMENTOS CIDEM, priority 2018, dated 2023).
Like-named read-outs stand apart in the source and are kept apart here.

How the values were obtained:
[1] = system: mechanical allodynia in the ipsilateral hindpaw of CCI rats; experiment: Sciatic nerve chronic constriction injury (CCI) model, mechanical allodynia (von Frey filaments), with isobolographic analysis; type: in vivo, rat (Sprague Dawley); details: for MPE, mechanical allodynia: day 14 post-CCI; for ED50: Rattus norvegicus
Description: (§1) The favorable results at a single dose in phase II of this algesymmetric test provide evidence that allows us to move towards a neuropathic pain model to study the possible combination at repeated doses. […] The CCI model has a high sensitivity (88%) for the prediction of efficacy in controlled clinical trials (Kontinen, V K and Meert, T F 2003. In: Dostrovsky, J O, Carr, D B, Koltzenburg, M. editors. the 10th World Congress on Pain, Seattle: IASP Press, p. 489-98). Once the model was reproduced, the threshold of removal of the injured hindpaw was measured by the stimulation with the von Frey filaments (mechanical allodynia) and by the stimulation with an electronic von Frey (mechanical hypernociception). The measurements were performed under baseline conditions and at 7 days post-CCI (hyperalgesic peak in the model), at which time the experimental groups were conformed (n=6-7 per group) to proceed with the dose-response curve study of amitriptyline. In this way, establish the ED30 or ED50 depending on the % of maximum possible effect (MPE) produced by the drug to reduce each of the sensory symptoms of neuropathic pain reproduced by the model (Jensen, T S and Baron, R. 2003. Pain 102: 1-8). Gabapentin, a common drug in its treatment, was used as a reference. CCI-vehicle group (distilled water 10 mL/kg, p.o.), amitriptyline groups (0.5, 1.5, 3, 10 mg/kg, p.o., AMT), gabapentin group (50 mg/kg, p.o., GBP); Sham CCI Group (distilled water 10 mL/kg, p.o.) The daily supply was given at repeated doses for 7 days until 14 days post-CCI, at which time another evaluation of the variables was performed. […] The experimental groups were formed for the dose-response curve study of paracetamol: CCI-vehicle group (distilled water 10 mL/kg, p.o.), Paracetamol groups (25, 50, 100, 200 mg/kg, p.o., P), Gabapentin group (50 mg/kg, p.o., GBP), CCI Sham Group (distilled water 10 mL/kg, p.o.). These doses of paracetamol have not been associated with liver or kidney damage in rats. […] To execute the dose-response curve mapping, the withdrawal thresholds after the treatments were converted into % of MPE. [Mechanical allodynia: MPE %=(post-treatment threshold−pre-treatment threshold)/(15 g-pre-treatment threshold)×100; Mechanical hypernociception: MPE % (Δ g post-treatment−Δ g pre-treatment)/50−Δ g pre-treatment)×100]. Subsequently, the same design was executed with the four doses of the combination calculated from the theoretical effective dose of each drug, this was calculated for each variable depending on the ED50 or ED30 according to the drug's capacity to obtain 50% or more of MPE that is 100% assumed as the total suppression of mechanical allodynia and mechanical hypernociception induced by CCI. […] In addition, concerning to the hypernociception intensity, the MPE values: 0.5 mg/kg=2.55%, 1.5 mg/kg=16.07% (p<0.05), 3 mg/kg=35.43% (p<0.001), 10 mg/kg=44.95% (p<0.001) vs GBP 50 mg/kg=63.47% (p<0.001), ED30=3.1032 (FIG. 8B). Amitriptyline inhibited both alterations of nociceptive processing but the potency of its effect was in the following order: mechanical allodynia>mechanical hypernociception. In neuropathic pain models there are controversies regarding the observation of the mechanical antiallodynic effect of amitriptyline. […] The result was similar in the model of spared neural injury (SNI), instead it reversed the responses to stimuli induced by chemical irritants induced by ATP and capsaicin, stimuli that are transmitted by the C fibers that express P2X and TRPV1 receptors and that are also involved in the transmission of thermal stimuli.

[2] = system: licking/biting behavior after injection of 2.5% formalin in the plantar surface of the rat's paw; experiment: Formalin test (persistent pain model), licking/biting behavior, with isobolographic analysis; type: in vivo, rat (Sprague Dawley); details: for percentage of inhibition of phase II (% antinociception) / ED30 for the inhibition of phase II (experimental): single dose; for percentage of inhibition of phase II (% antinociception): 2.5% formalin; for Oral administration ED30: formalin test, dose producing 30% reduction of control response, mean ± SD of the estimate; for ED30 for the inhibition of phase II (experimental): oral, phase II of formalin test, unit not given
Description: In the present invention referred to the combination paracetamol:amitriptyline, the pharmacodynamic rationality was based on the knowledge of the actions of both drugs on the nociceptive pathways considering the multiple sites and mechanisms operating on specific targets, as well as their adverse effects and pharmacokinetic variables. […] This responds to the need for the use of integral systems in which peripheral activity, spinal transmission, modulating systems and suprasegmental systems of the active global network that leads to the perception of pain can interact (Raffa, R B et al., 2010. J Pain 11: 701-709). The experiments were designed in young rats (8-10 weeks, Sprague Dawley, males, 168-240 g, CENPALAB, Havana, Cuba) and divided into several groups n=6-7 each, which received increasing doses of both drugs independent and combinations, to evaluate the effect as a percentage (%) of antinociception at single doses in the formalin test compared to the vehicle-treated group. This test is considered a standard persistent pain model for the study of animal nociception, widely used (Okuda, K. et al., 2001. Pain 92: 107-15). A biphasic nociceptive behavior has been described in this test, the first phase or nociceptive is interpreted as a consequence of the direct activation of the peripheral endings of the nociceptors by the chemical irritant. While the second, tonic or late phase is interpreted as the result of the acute inflammatory response, as well as the peripheral and central sensitization produced by the sustained activation of C fibers (Coderre, T J et al., 1990. Brain Res. 535: 155-8). This phase mimics the changes in synaptic plasticity that occur during persistent pain that could progress to chronicity, which is why it received the greatest attention in our experiments. The period between the two phases of the response is identified as a phase of latency in which the activity diminishes or practically ceases, this effect being attributed to the participation of the mechanisms of central endogenous pain modulation (Dubuisson, D. and, Dennis, S G 1977. Pain 4: 161-74; Omote, K. et al., 1998. Brain Res. 814: 194-8). The time course of the antinociceptive response to individual drugs and combinations was constructed by mapping the mean time of the licking/biting as a function of the time of each phase. These values were transformed into percentage of antinociception that express the percentage of inhibition of the behavior with respect to the control of the particular phase according to the formula: % antinociception=((x−x1)/x)*100. Where X=average time of licking/bite of the control group treated with vehicle, X1=time of licking/biting of each animal of the experimental group (for phase I licking time in 5 minutes, for phase II average of the time of 15 to 45 minutes per animal). In the case that X1 was greater than X, a value of 0 was assigned to % antinociception. A value close to 0% means that the behavior is similar to that of the control group and a value close to 100% means that there was no nocidefensive behavior (Argelles, C. F. et al., 2002. Anesthesiology 96: 921-5). The antihyperalgesic effect of amitriptyline has been recognized in neural damage conditions. […] One of the proposals to explain these discrepancies has been the ability of amitriptyline to increase serotonergic signaling, which has multiple subtypes of receptors, some low and others with high affinity, with heterogeneous and even opposite actions distributed at different levels of the nociceptive pathways. […] However, 5-HT2A and 5-HT3, 5-HT4 and 5-HT7 localized pre-synaptically facilitate it. […] As a consequence, the most integrated licking/biting behavior was recorded and doses of amitriptyline (0.1, 1, 3, 10 mg/kg, p.o., AMT) were used for the dose-response curve study (FIG. 1). […]

[3] = system: mechanical hypernociception in the ipsilateral hindpaw of CCI rats; experiment: Sciatic nerve chronic constriction injury (CCI) model, mechanical hypernociception (electronic von Frey); type: in vivo, rat (Sprague Dawley); details: for MPE, intensity of mechanical hypernociception: day 14 post-CCI; for ED30, mechanical hypernociception: oral repeated doses, CCI rats, unit not given
Description: as §1

[4] = Behavioral safety pharmacological tests (rota-rod, tone, posture, righting reflex, general state); type: in vivo, rat (Sprague Dawley); details: repeated minor doses (0.5-10 mg/kg p.o.) in the CCI model
Description: The rotating rod or rota-rod test was executed. The apparatus consists of a bar with a diameter of 2.5 cm divided into 4 compartments. The bar rotated at a constant speed of 22 rpm and the time it took for the animals to fall from the bar was evaluated. The animals were evaluated 1 h after the supply. The cut-off time used was 60 seconds. In addition, the tone, posture, righting reflex, corneal, vital signs and general state of the animal were explored from 30 minutes to 3 hours post-administration of the drugs separately and the combination. The corneal and tympanic reflex were explored by the tip of a thin paper to stimulate the cornea or auditory canal and the rapid response of opening and closing of the eyes or the mobilization of the ears in normal animals was observed. The evaluation of the posture and the righting reflex was based on the scale of Devor and Zalkind. Scale for posture: 0=normal posture, grooming supported on its hind legs; 1=moderate atony and ataxia, supports its weight, but can not rest on its hind legs; 2=supports its weight, but ataxia is severe; 3=maintains muscle tone, but can not support its weight, only small movements of intention; 4=atony, flaccidity, totally immobilized, no efforts to mobilize.

[5] = system: CCI-induced Wallerian degeneration-related changes in rat sciatic nerve; experiment: Histopathological study of sciatic nerve sections (Wallerian degeneration) in CCI rats; details: GBP as positive control, 14 days post-CCI
[6] = 0.5 mg/kg p.o. daily for 7 days
[7] = 1.5 mg/kg p.o. daily for 7 days
[8] = po, CCI model, dose producing 50% reduction of control response, table values mean ± SD of the estimate, read-out: Oral administration ED50 (antiallodynic, experimental)
[9] = oral repeated doses, CCI rats, unit inferred, read-out: ED50, mechanical allodynia
[10] = 100 mg/kg p.o. daily for 7 days
[11] = 200 mg/kg p.o. daily for 7 days

## CN(C)CCC=C1c2ccccc2CCc2ccccc21 [Amitriptyline, amitriptyline]
[1]; [6]
  MPE, mechanical allodynia: 0.96%
[1]; [7]
  MPE, mechanical allodynia: 1.31%
[1]; 3 mg/kg p.o. daily for 7 days
  MPE, mechanical allodynia: 58.75%
[1]; 10 mg/kg p.o. daily for 7 days
  MPE, mechanical allodynia: 65.97%
[1]; [8]
  ED50: 4.54 ± 2.28 mg/kg
[1]; [9]
  ED50: 4.54 mg/kg
[1]; doses of 3 and 10 mg/kg p.o., repeated 7 days (p<0.05)
  withdrawal thresholds of the damaged paw to von Frey filaments stimulation: increased the withdrawal thresholds
[2]; 0.1 mg/kg p.o., phase II (15-45 min)
  percentage of inhibition of phase II (% antinociception): −11.38%
[2]; 1 mg/kg p.o., phase II
  percentage of inhibition of phase II (% antinociception): 57.35%
[2]; 3 mg/kg p.o., phase II
  percentage of inhibition of phase II (% antinociception): 55.56%
[2]; 10 mg/kg p.o., phase II
  percentage of inhibition of phase II (% antinociception): 62.24%
[2]; doses 0.1, 1, 3, 10 mg/kg p.o.
  inhibitory effect on phases of the formalin test: significant inhibitory effect was observed exclusively on phase II
[2]; doses of 20, 25, 50 and 100 mg/kg
  licking/biting response in both phases: a significant dose-dependent inhibitory response pattern was not observed
[2]
  Oral administration ED30: 0.66 ± 0.41 mg/kg
  ED30 for the inhibition of phase II (experimental): 0.6677
[3]; [6]
  MPE, intensity of mechanical hypernociception: 2.55%
[3]; [7]
  MPE, intensity of mechanical hypernociception: 16.07%
[3]; 3 mg/kg p.o. daily for 7 days
  MPE, intensity of mechanical hypernociception: 35.43%
[3]; 10 mg/kg p.o. daily for 7 days
  MPE, intensity of mechanical hypernociception: 44.95%
[3]; dose of 1.5 (p<0.01), 3 and 10 mg/kg (p<0.001) p.o., repeated 7 days
  intensity of mechanical hypernociception: significantly reduced the intensity of mechanical hypernociception
[3]
  ED30, mechanical hypernociception: 3.1032
[4]
  signs of sedation or catalepsy: no signs of sedation or catalepsy

## CC(=O)Nc1ccc(O)cc1 [Paracetamol, paracetamol]
[1]; 25 mg/kg p.o. daily for 7 days
  MPE, mechanical allodynia: 25.65%
[1]; 50 mg/kg p.o. daily for 7 days
  MPE, mechanical allodynia: 60.96%
[1]; [10]
  MPE, mechanical allodynia: 75.49%
[1]; [11]
  MPE, mechanical allodynia: 75.45%
[1]; [8]
  ED50: 47.5 ± 14.1 mg/kg
[1]; [9]
  ED50: 47.5 mg/kg
[1]; doses 25, 50, 100, 200 mg/kg p.o., repeated 7 days (p<0.05)
  antiallodynic effect: significant antiallodynic effect from doses of 50 mg/kg
[2]; 50 mg/kg p.o., phase II
  percentage of inhibition of phase II (% antinociception): 38.08%
[2]; 100 mg/kg p.o., phase II
  percentage of inhibition of phase II (% antinociception): 65.73%
[2]; 200 mg/kg p.o., phase II
  percentage of inhibition of phase II (% antinociception): 74.24%
[2]; 300 mg/kg p.o. (printed 'the dose higher than 300 mg/kg')
  effect on phase I of the formalin test: significantly reduced phase I
[2]; 300 mg/kg p.o., phase II
  percentage of inhibition of phase II (% antinociception): 87.78%
[2]; all doses used: 50, 100, 200, 300 mg/kg p.o.
  effect on phase II of the formalin test: significantly reduced phase II
[2]
  Oral administration ED30: 32.35 ± 7.85 mg/kg
  ED30 for the inhibition of phase II (experimental): 32.3578
[3]; 25 mg/kg p.o. daily for 7 days
  MPE, intensity of mechanical hypernociception: 31.79%
[3]; 50 mg/kg p.o. daily for 7 days
  MPE, intensity of mechanical hypernociception: 35.05%
[3]; [10]
  MPE, intensity of mechanical hypernociception: 42.42%
[3]; [11]
  MPE, intensity of mechanical hypernociception: 48.37%
[3]; 25, 50, 100 (p<0.01) and 200 mg/kg (p<0.001) p.o., similar to GBP
  mechanical antihypernociceptive effect: mechanical antihypernociceptive effect in a dose-dependent manner
[3]; doses of 300 mg/kg compared with 200 mg/kg
  efficacy to reduce the intensity of mechanical hypernociception, 300 mg/kg versus 200 mg/kg: less efficacy
[3]
  ED30, mechanical hypernociception: 22.5725

## NCC1(CC(=O)O)CCCCC1 [GBP, gabapentin]
[1]; 50 mg/kg p.o. daily for 7 days
  MPE, mechanical allodynia: 60.66%
[5]
  Wallerian degeneration alterations in sciatic nerve (qualitative): show a decrease in these alterations
[3]; 50 mg/kg p.o. daily for 7 days
  MPE, intensity of mechanical hypernociception: 63.47%
